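Tested at 5 concentrations; 48 h exposure; 96-well plates; endpoints linearly interpolated, else capped at highest concentration. GI50 is the concentration that inhibits growth by half.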 Active and inactive are the calls of the source. Cut-off read from the data, not from the text of the source: active = GI50 up to about 1.1 µM and inactive = higher.
How the values were obtained:
Assay in all cases: DTP human tumour cell line panel, 48 h
[1] = test system: HL-60
[2] = test system: SF-295
[3] = test system: HOP-18
[4] = test system: 786-0
[5] = test system: ACHN
[6] = test system: OVCAR-5
[7] = test system: KM-20L2
[8] = test system: HOP-62
[9] = test system: SK-OV-3
[10] = test system: EKVX
[11] = test system: HCC 2998
[12] = test system: NCI-H226
[13] = test system: OVCAR-3
[14] = test system: UACC-62
[15] = test system: HT-29
[16] = test system: DMS-114
[17] = test system: SNB-78
[18] = test system: SNB-19
[19] = test system: CAKI-1
[20] = test system: U-251
[21] = test system: SK-MEL-28
[22] = test system: KM12
[23] = test system: UACC-257
[24] = test system: K562
[25] = test system: A498
[26] = test system: SN12C
[27] = test system: DMS-273
[28] = test system: RPMI-8226
[29] = test system: SK-MEL-2
[30] = test system: OVCAR-8
[31] = test system: M14
[32] = test system: IGROV-1
[33] = test system: HCT-15
[34] = test system: Malme-3M
[35] = test system: MOLT-4
[36] = test system: NCI-H23
[37] = test system: SW-620
[38] = test system: TK-10
[39] = test system: LXFL 529
[40] = test system: DLD-1
[41] = test system: NCI-H522
[42] = test system: RXF 631
[43] = test system: SNB-75
[44] = test system: HCT-116
[45] = test system: A549
[46] = test system: UO-31
[47] = test system: OVCAR-4
[48] = test system: SK-MEL-5
[49] = test system: LOX IMVI
[50] = test system: CCRF-CEM
[51] = test system: NCI-H460
[52] = test system: SF-268
[53] = test system: COLO 205
[54] = test system: M19-MEL
[55] = test system: SR
[56] = test system: RXF 393

## O=c1cccccc1NCCCCCCNc1cccccc1=O
[1]
  GI50: > 100 µM (inactive)
[2]
  GI50: > 100 µM (inactive)
[3]
  GI50: > 100 µM (inactive)
[4]
  GI50: > 100 µM (inactive)
[5]
  GI50: > 100 µM (inactive)
[6]
  GI50: > 100 µM (inactive)
[7]
  GI50: > 100 µM (inactive)
[8]
  GI50: > 100 µM (inactive)
[9]
  GI50: > 100 µM (inactive)
[10]
  GI50: > 100 µM (inactive)
[11]
  GI50: > 100 µM (inactive)
[12]
  GI50: > 100 µM (inactive)
[13]
  GI50: > 100 µM (inactive)
[14]
  GI50: > 100 µM (inactive)
[15]
  GI50: > 100 µM (inactive)
[16]
  GI50: > 100 µM (inactive)
[17]
  GI50: > 100 µM (inactive)
[18]
  GI50: > 100 µM (inactive)
[19]
  GI50: > 100 µM (inactive)
[20]
  GI50: > 100 µM (inactive)
[21]
  GI50: > 100 µM (inactive)
[22]
  GI50: > 100 µM (inactive)
[23]
  GI50: > 100 µM (inactive)
[24]
  GI50: > 100 µM (inactive)
[25]
  GI50: > 100 µM (inactive)
[26]
  GI50: > 100 µM (inactive)
[27]
  GI50: > 100 µM (inactive)
[28]
  GI50: > 100 µM (inactive)
[29]
  GI50: > 100 µM (inactive)
[30]
  GI50: > 100 µM (inactive)
[31]
  GI50: > 100 µM (inactive)
[32]
  GI50: > 100 µM (inactive)
[33]
  GI50: > 100 µM
[34]
  GI50: > 100 µM (inactive)
[35]
  GI50: > 100 µM (inactive)
[36]
  GI50: > 100 µM (inactive)
[37]
  GI50: > 100 µM (inactive)
[38]
  GI50: > 100 µM (inactive)
[39]
  GI50: > 100 µM (inactive)
[40]
  GI50: > 100 µM (inactive)
[41]
  GI50: > 100 µM (inactive)
[42]
  GI50: > 100 µM (inactive)
[43]
  GI50: 57.7 µM (inactive)
[44]
  GI50: > 100 µM (inactive)
[45]
  GI50: > 100 µM (inactive)
[46]
  GI50: > 100 µM (inactive)
[47]
  GI50: > 100 µM (inactive)
[48]
  GI50: > 100 µM (inactive)
[49]
  GI50: > 100 µM (inactive)
[50]
  GI50: > 100 µM (inactive)
[51]
  GI50: > 100 µM (inactive)
[52]
  GI50: > 100 µM (inactive)
[53]
  GI50: > 100 µM (inactive)
[54]
  GI50: > 100 µM (inactive)

## Cc1ccc2c(c1)C(c1cccc3ccccc13)OC2=O (stereo not drawn)
[1]
  GI50: > 100 µM (inactive)
[2]
  GI50: 61 µM (inactive)
[3]
  GI50: 71.6 µM (inactive)
[4]
  GI50: 56.9 µM (inactive)
[5]
  GI50: 92.9 µM (inactive)
[6]
  GI50: > 100 µM (inactive)
[7]
  GI50: > 100 µM (inactive)
[8]
  GI50: 21.4 µM (inactive)
[9]
  GI50: 86.3 µM (inactive)
[10]
  GI50: 69.8 µM (inactive)
[11]
  GI50: > 100 µM (inactive)
[12]
  GI50: 42.9 µM (inactive)
[13]
  GI50: > 100 µM (inactive)
[14]
  GI50: > 100 µM (inactive)
[55]
  GI50: > 100 µM (inactive)
[15]
  GI50: > 100 µM (inactive)
[16]
  GI50: > 100 µM (inactive)
[18]
  GI50: 64.7 µM (inactive)
[19]
  GI50: > 100 µM (inactive)
[20]
  GI50: 58.2 µM (inactive)
[21]
  GI50: > 100 µM (inactive)
[22]
  GI50: 99.1 µM (inactive)
[23]
  GI50: 53.8 µM (inactive)
[24]
  GI50: > 100 µM (inactive)
[25]
  GI50: 26 µM (inactive)
[26]
  GI50: > 100 µM (inactive)
[27]
  GI50: > 100 µM (inactive)
[29]
  GI50: > 100 µM (inactive)
[30]
  GI50: 84.5 µM (inactive)
[56]
  GI50: 27.8 µM (inactive)
[31]
  GI50: 41 µM (inactive)
[32]
  GI50: > 100 µM (inactive)
[33]
  GI50: > 100 µM
[34]
  GI50: 51.6 µM (inactive)
[35]
  GI50: > 100 µM (inactive)
[36]
  GI50: 75.9 µM (inactive)
[37]
  GI50: > 100 µM (inactive)
[38]
  GI50: 31.6 µM (inactive)
[39]
  GI50: > 100 µM (inactive)
[40]
  GI50: 75 µM (inactive)
[41]
  GI50: > 100 µM (inactive)
[42]
  GI50: 27.7 µM (inactive)
[43]
  GI50: 36.4 µM (inactive)
[44]
  GI50: > 100 µM (inactive)
[45]
  GI50: 89.3 µM (inactive)
[46]
  GI50: > 100 µM (inactive)
[47]
  GI50: 35 µM (inactive)
[48]
  GI50: 31.4 µM (inactive)
[49]
  GI50: > 100 µM (inactive)
[50]
  GI50: > 100 µM (inactive)
[51]
  GI50: > 100 µM (inactive)
[52]
  GI50: > 100 µM (inactive)
[53]
  GI50: > 100 µM (inactive)
[54]
  GI50: > 100 µM (inactive)

From ChEMBL document CHEMBL1201862, “PubChem BioAssay data set” (2004)
